Like-named read-outs stand apart in the source and are kept apart here. Numbered stars: 1 amine (or outer) side, 2 acyl side, 3 side chain; on linkers, the order of the positions; unused ones are H or OH. Bridge positions count the residues as written; N and C are the ends. Square brackets hold non-standard residues; d marks the D form. Peptide text beside a SMILES is read from it. CO = O=C([*:1])[*:2]; Nlys = NCCCCNCC(=O)O

The results in this text go back to PMC8717366, “Synthesis and Pharmacological Characterization of Visabron, a Backbone Cyclic Peptide Dual Antagonist of α4β1 (VLA-4)/α9β1 Integrin for Therapy of Multiple Sclerosis” (JACS Au, 2021).

Data set [1] deals with cyclooxygenase (COX) enzymes. In words: SafetyScreen44 enzyme inhibition, cyclooxygenases. Type of data set: biochemical. As to conditions: 1 mM; Figure 6. The procedure: (§1) Screening of potentially significant off-target effects to binding and enzyme targets was performed via SafetyScreen44 offered by Eurofins Cerep-Panlabs. Visabron c (4–4) was tested at 1 and 0.1 mM. Compound binding was calculated as the percentage of inhibition of the binding of a radioactively labeled ligand specific for each target. The compound enzyme inhibitory effect was calculated as the percentage of inhibition of control enzyme activity. Results showing inhibition higher than 40% were considered to represent significant effects of the tested compound. Results showing inhibition lower than 25% as obtained with 0.1 mM Visabron c (4–4) were not considered significant and were mostly attributable to the variability of the signal around the control level. In each experiment, the respective reference compound was tested concurrently with visabron c (4–4), and the data were compared with historical values determined at Eurofins. The experiment was statistically accepted in accordance with the Eurofins validation standard operating procedure.

Data set [2] can be described thus: Pharmacokinetics in rats after single i.v. dose. Type of data set: in vivo, Male Wistar rats. As for the experimental part:
Pharmacokinetics of Visabron c (4-4) following iv injection:
Animals-Male Wistar rats (275−300 g, purchased from Harlan, Israel), were used for the surgical procedure. An indwelling cannula was implanted into the right jugular vein, and exteriotrated at the dorsal neck to enable serial systemic blood sampling. After completion of the surgical procedure, the animals were transferred to cages to recover overnight (12−18 h). The animals had free access to water and food during the recovery period and throughout the entire experiment. All surgical and experimental procedures were approved by the Animal Experimental Ethics Committee of the Hebrew University, Hadassah Medical School, Jerusalem. […]
PK Study-A single dose of Visabron c(4-4) in sterile water (300 μL of a 0.514 mg/mL solution, which was equivalent to a final dose of 0.514 mg/kg) was administered i.v. via the indwelling jugular cannula to each rat. Following dose administration, blood samples were taken at pre -dose, 10, 15, 30, 60, 90 and 130-min from the onset of the drug administration (time zero) via the right jugular vein. Approximately […]
350 μL of whole blood was removed, and placed in sodium-heparin containing tubes, and immediately placed in wet ice. Blood was centrifuged at 5322 g for 10 min and a 150 μL aliquot of plasma was transferred to fresh centrifuge tubes and stored at −20 °C pending analysis. PK analysis was performed using standard non-compartmental analysis models in Phoenix WinNonlin®.
Bioanalytical Method for the Detection of Vis-c(4-4) in Rat Plasma: Plasma samples (150 μL) were spiked with metoprolol (20 μL, 10 μg/mL) as an internal standard. 200 μL of ACN was added to each sample and vortex-mixed for 1 min. The samples were then centrifuged (14635 g, 10 min), and the supernatant was transferred to fresh glass tubes and evaporated to dryness (Vacuum Evaporation System, Labconco, Kansas City, MO, USA). The glass tubes were reconstituted in 80 μL of mobile phase and centrifuged a second time (14635 g, 10 min). The amount of the compounds was determined using an HPLC−MS Waters 2695 Separation Module, equipped with a Micromass ZQ detector. The resulting solution was injected (10 μL) into the HPLC sy stem. The system was conditioned as follows :
Xterra MS C18, 3.5 µm, 100A, 100 x 2.1 mm column (Waters), an isocratic mobile phase of ACN : water supplemented with 0.1% formic acid (15:85, v/v) and a flow rate of 0.2 mL/ min at 35 °C was used. The limit of quantification the peptide was 25 ng/mL. Calibration curve was prepared by spiking the standard working stock solution with 15 μL of the different concentrations, 20 μL IS (10 μg/ mL) and 135 μl blank rat plasma in a centrifuge tube on the analysis day . […]
range of 25 ng/Ml to 2.5 μg/mL.
Blood cell counting and biochemistry analyzes : Male C57BL/6 mice were injected intravenously with 0.2 ml of peptide in a dose of 500 mg/kg. No immediate toxicity symptoms were measured a nd thereafter, acute tolerability was observed. Since the hematopoietic system is one of the most sensitive parameters to assess the toxicity of drugs in humans and animals, tail vein blood samples were taken from control (n=3) and 250 mg/kg Visabron c (4-4) injected mice (n=5), after 24 hours from injection and submitted for hematocrit cell counting and biochemical analysis. […]
blood count and electrolytes of special importance are normal liver (ALP, alkaline phosphatase; ALT, alanine transaminase and AST, aspartate transaminase) functions and normal kidney (creatinine and blood urea nitrogen) functions, indicating sufficient organ integrity at the end of the experimental period. The data obtained was similar to hematological parameters reported for this mice strain5, and clearly indicates lack of differences on kidney and liver parameters between the two mice groups.
Visabron c (4-4) safety by in vitro evaluation using PhosphoSens - CSox based kinase assays:
A powerful method was used to measure the activity of recombinant protein kinases using a […]

In a further data set the test system is SafetyScreen44 targets. In words: SafetyScreen44 off-target panel (44 binding, enzymatic and transporter assays). Conditions: 1 mM; threshold of 40% for binding competition; Figure 5. As for the experimental part:
as §1

`CSCC[C@@H]1NC(=O)[C@H]([C@@H](C)O)NC(=O)CN(C(=O)[C@@H](N)CCCCN)CCCCNC(=O)NCCCCN(CC(=O)N[C@@H](CC(C)C)C(N)=O)C(=O)[C@H](CC(=O)O)NC(=O)[C@H](CC(C)C)NC1=O` [visabron c (4–4)] (H-K[Nlys]TMLD[Nlys]L-NH2; linker 2-7 via CO): the “Inhibition of cyclooxygenase (COX) enzymes” value in data set [1] was “moderately inhibited”. The half-life (as a rule, the time in which the quantity being followed falls by half) in data set [2] (rat, in vivo, iv, 0.515 mg/kg, single i.v. dose 0.515 mg/kg, n = 4) was found to be 24 min. The exposure (AUC) (as a rule, the area under the concentration-time curve, a measure of exposure) in data set [2] (rat, in vivo, iv, plasma, single i.v. dose 0.515 mg/kg, n = 4) is 777 ng·h/mL. Moreover, the Vd in data set [2] (rat, in vivo, iv, read-out: volume of distribution) turned out to be 0.39 L/kg; in data set [2] (rat, in vivo, iv, single i.v. dose 0.515 mg/kg, n = 4, Table 3, read-out: Vd) it was 0.381 ± 0.029 L/kg. Further, the clearance (as a rule, the volume of plasma or blood freed of the substance per unit of time) in data set [2] (rat, in vivo, iv, single i.v. dose 0.515 mg/kg, n = 4, noncompartmental analysis) turned out to be 11.1 ± 0.5 mL/min/kg. Moreover, the t1/2 in data set [2] (single i.v. dose 0.515 mg/kg, n = 4, 0.515 mg/kg) is recorded as 23.8 ± 1.6 min. The “Interaction with the majority of the physiological targets” value in the data set with SafetyScreen44 targets is given as “did not interact”.
